From patent US11927585B2, “Solvent-based inks and coatings for food contact applications” (SUN CHEMICAL CORPORATION, priority 2020, dated 2024)
Counter-ions that a name gives are not always drawn. Like-named read-outs stand apart in the source and are kept apart here.

How the values were obtained:
[1] = Worst-case calculation (100% migration), standard EU Cube exposure model; details: 100% migration; for Worst-case calculation as a percentage of SML (or restriction), EU Cube: 2.0 g/m^2 dry film; for Worst Case Calculation of migration in EU Cube model (as a percentage of SML): substance in ink SBDEV980 (Ex. 4B Red), dry coat weight 2.0 g/m^2
[2] = Worst-case calculation, Application 1 yoghurt pot lid exposure scenario; details: 100% migration, 2.0 g/m^2 dry film
[3] = Worst-case calculation, Application 2 cheese packaging wrap exposure scenario; details: 100% migration, 2.0 g/m^2 dry film
[4] = Specific migration limit (SML) from regulation or hazard assessment (TTC, VEGA QSAR, Cramer Class); details: source HA (internal hazard assessment), self-derived SML; EU Cube model
[5] = cited from earlier work
[6] = Source of SML or restriction: SO (Swiss Ordinance)
[7] = source of SML or restriction: SO (Swiss Ordinance)

Row | Worst-case calculation as a percentage of SML (or restriction), EU Cube ([1]; product SBDEV980) | Worst-case calculation as a percentage of SML (or restriction), EU Cube ([1]; product SBDEV1285) | Worst Case Calculation of migration in EU Cube model (as a percentage of SML) [1] | Worst-case calculation as a percentage of SML (or restriction), Application 1 ([2]; product SBDEV980) | Worst-case calculation as a percentage of SML (or restriction), Application 1 ([2]; product SBDEV1285) | Worst-case calculation as a percentage of SML (or restriction), Application 2 ([3]; product SBDEV980) | Worst-case calculation as a percentage of SML (or restriction), Application 2 ([3]; product SBDEV1285) | SML or Restriction (mg substance/kg food) [4] [mg substance/kg food] | Structure (SMILES) | SML (or restriction) [5, 6] [mg substance/kg food] | SML (or restriction) [5, 7] [mg substance/kg food] | SML (or restriction) ([5]; Source of SML or restriction: PR (EU Plastics Regulation No. 10/2011)) [mg substance/kg food] | SML (or restriction) ([5]; source of SML or restriction: PR (EU Plastics Regulation No. 10/2011)) [mg substance/kg food]
1 | 230 percentage of SML (or restriction) | 230 percentage of SML (or restriction) | 230 percentage of SML | 90.5 percentage of SML (or restriction) | 90.5 percentage of SML (or restriction) | 331.2 percentage of SML (or restriction) | 331.2 percentage of SML (or restriction) | 0.09 | NC(=O)c1ccc(-c2ccccc2)cc1 [0003815-20-1, 4-Phenylbenzamide] |  |  |  | 
2 | 0.3 percentage of SML (or restriction) | 0.3 percentage of SML (or restriction) | 0.3 percentage of SML | 0.1 percentage of SML (or restriction) | 0.1 percentage of SML (or restriction) | 0.4 percentage of SML (or restriction) | 0.4 percentage of SML (or restriction) | 5 | c1ccc(-c2ccc(-c3nc(-c4ccc(-c5ccccc5)cc4)nc(-c4ccc(-c5ccccc5)cc4)n3)cc2)cc1 [0031274-51-8, 1,3,5-Triazine, 2,4,6-Tris([1,1′-Biphenyl]-4-Yl)-] |  |  |  | 
3 |  |  |  |  |  |  |  |  | CCCOC(C)=O [Acetic acid, propyl ester] | 60 | 60 |  | 
4 |  |  |  |  |  |  |  |  | CCCCOC(=O)CC(O)(CC(=O)OCCCC)C(=O)OCCCC [Tributyl citrate] | 0.05 | 0.05 |  | 
5 |  |  |  |  |  |  |  |  | CCO [ethanol] |  |  | 60 | 60
